The target of one experiment is T1, human AR (Homo sapiens, UniProt P10275).
T1 construct: expressed in transfected cells; host or cells: ZFL (zebrafish liver) cells
T1 sequence (P10275 1-920): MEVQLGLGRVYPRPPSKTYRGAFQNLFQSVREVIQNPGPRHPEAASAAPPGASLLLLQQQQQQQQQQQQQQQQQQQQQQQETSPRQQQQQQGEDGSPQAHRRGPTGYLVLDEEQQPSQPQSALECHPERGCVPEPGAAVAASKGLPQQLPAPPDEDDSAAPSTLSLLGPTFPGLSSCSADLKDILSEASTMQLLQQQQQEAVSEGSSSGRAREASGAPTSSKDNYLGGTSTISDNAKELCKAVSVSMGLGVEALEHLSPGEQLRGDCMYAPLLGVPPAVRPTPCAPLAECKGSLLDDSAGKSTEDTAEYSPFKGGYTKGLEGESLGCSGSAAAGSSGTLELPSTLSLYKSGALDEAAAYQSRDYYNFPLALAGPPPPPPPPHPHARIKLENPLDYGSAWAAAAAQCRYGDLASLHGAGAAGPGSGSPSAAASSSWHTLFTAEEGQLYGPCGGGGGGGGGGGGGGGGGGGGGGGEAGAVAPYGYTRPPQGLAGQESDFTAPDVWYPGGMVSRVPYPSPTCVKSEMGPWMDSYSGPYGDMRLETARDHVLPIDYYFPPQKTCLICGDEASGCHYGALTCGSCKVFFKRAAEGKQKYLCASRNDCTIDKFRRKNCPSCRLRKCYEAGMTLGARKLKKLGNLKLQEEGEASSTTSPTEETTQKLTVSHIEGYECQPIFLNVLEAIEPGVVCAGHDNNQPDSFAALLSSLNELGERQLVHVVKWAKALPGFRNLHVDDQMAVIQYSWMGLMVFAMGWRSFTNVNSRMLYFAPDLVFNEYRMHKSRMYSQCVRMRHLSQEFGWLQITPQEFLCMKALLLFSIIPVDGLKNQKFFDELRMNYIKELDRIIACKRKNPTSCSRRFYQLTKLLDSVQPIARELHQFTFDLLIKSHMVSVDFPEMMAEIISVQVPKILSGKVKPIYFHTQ
Briefly: ARE-luciferase trans-activation assay, human AR in transfected ZFL cells. The experiment is classed as cell-based. The note with it: 10^-8 M of each steroid.

The test system of a further experiment is stickleback ARβ2. Description: ARE-luciferase trans-activation assay, stickleback ARβ2 in transfected HepG2 and ZFL cells. The conditions noted are these: for induction of luciferase activity: 40 h, versus control. The experiment is classed as cell-based, three-spined stickleback (Gasterosteus aculeatus). The protocol:
Two liver epithelial cell lines were used to test receptor activity. HepG2 cells (ATCC, Manassas, VA) were maintained in DMEM supplemented with 10% FCS and non-essential amino acids. ZFL cells (ATCC) were maintained in 50% L-15 Leibovitz, 15% […] and 35% DMEM supplemented with 10% FCS (Gibco, Paisley, Scotland, UK) and 50 ng ml-1 EGF (Sigma). Cells were cultured at 37°C (HepG2) or 28°C (ZFL) in 5% CO2. The transfection experiments were initiated by replacing the tissue culture medium with fresh phenol-free medium supplemented with charcoal stripped FCS and the cells were seeded on 24-well plates. Transfections were performed at 90–95% confluence using 1,5 μl Lipofectamine 2000 (Invitrogen, Carlsbad, CA, USA) and 0,6 μg DNA per well. Transfected DNA contained 60 ng pRL (Promega), 270 ng androgen response element (ARE) luciferase reporter vector, 270 ng stickleback ARβ2 expression vector or 270 ng human AR expression vector (pCMVhAR) while 270 ng empty TNT cloning vector was used to control background luciferase levels following transfections. Two different ARE containing promoter constructs were tested, one containing 3 separate ARE (HRE; slp-ARU) and a second one construct (slp-HRE2) containing 4 copies of the ARE with high affinity for R1881, a synthetic androgen, and low affinity for dexamethasone, a synthetic glucocorticoid.
After 16 h the transfection medium was replaced with fresh phenol-free medium, supplemented with charcoal stripped FCS, containing different steroid hormones. The cells were exposed to the hormones for 40 h and luciferase levels were detected using the Dual Luciferase Assay kit (Promega) in a TD 20/20 Luminometer (Turner Designs, Sunnyvale, CA). For each cell line, transfection assay was performed for each concentration with n = 4 and the luciferase value of each assay were normalized to its corresponding Renilla luciferase activity. Each experiment was repeated a minimum of 3 times. The fold-induction is presented as luciferase values normalized against the control. The control levels were arbitrarily set to 1.0 for each cell line.

In experiment [1] the test system is spiggin mRNA in adult female stickleback kidney. Description: Induction of spiggin mRNA in stickleback kidney after steroid implants (slot blot). The experiment is classed as in vivo, three-spined stickleback (Gasterosteus aculeatus). The conditions noted are these: females. Here is the method:
The fish were anesthetized with 0.1% (v/v) 2-phenoxyethanol (Sigma, St. Louis, MO, USA) and implanted intraperitoneally with Silclear silicone tubing (10-mm length, 0.6-mm inner diameter, 1.2-mm outer diameter) containing steroids dissolved in cocoa butter. […] KA was used as this steroid is converted into KT by the fish. Tubes containing cocoa butter alone were used as controls. Following implantation the fish were maintained in 50-liter aquaria containing brackish water (0.5% salinity) at 20°C under LD 16:8 h. At sampling fish were decapitated and the kidneys were excised, frozen using liquid nitrogen, and stored at -70°C. A number of experiments were performed as follows. Spiggin mRNA was measured in post-breeding females that were dissected 2 days following implantation of tubes. Cytosolic androgen-receptors were measured in females and in castrated males. Males were castrated under anesthesia as above, by making a 1.5 mm long incision into the abdominal cavity on each side and removing the testes using forceps. The females and the castrated males were implanted with control and high dose tubes and dissected after 6 days. AR mRNA was studied in females implanted for 12 h, 2 and 16 days (separate experiments) with control and high dose tubes and in males castrated as above and implanted for 10 days with control tubes and high doses of KA or E2.
Total RNA was extracted using Tri Reagent™ (Sigma). Aliquots of 10 μg of total RNA were mixed with denaturing solution (6 × SSC, 7% (v/v) formaldehyde) and transferred onto a nylon membrane (Amersham Pharmacia Biotech) using a Minifold II Slot Blot Apparatus (Schleicher and Schuell, Keene, NH, USA). Membranes were probed using either a randomly primed [α-^32P]-dCTP radiolabelled AR cDNA fragment (918 base pairs) that was isolated by reverse transcriptase-polymerase chain reaction and sequenced as above, or a randomly primed [α-^32P]-dCTP radiolabelled spiggin-α cDNA. Hybridizations were performed at 65°C overnight (6 × SCC, 0.1% (w/v) SDS, 100 μg ml^-1 tRNA, and 5 × Denhardt's solution). The membranes were washed for 2 × 30 minutes at 42°C and 65°C in 0.1 × SCC, 0.1% (w/v) SDS whereafter Hyperfilm™-MP film was exposed at -70°C. The films were visualized using Curix 60 Film Developer. Following AR and spiggin mRNA determination the membranes were stripped and analyzed for 18S rRNA using a cDNA fragment as internal control. Each AR or spiggin transcript was then semi-quantified using Quantity ONE 4.2.3 (Bio-Rad, Laboratories, Inc, Hercules, CA, USA) in relation to its internal 18S transcript.

Description for human AR: Two liver epithelial cell lines were used to test receptor activity. HepG2 cells (ATCC, Manassas, VA) were maintained in DMEM supplemented with 10% FCS and non-essential amino acids. ZFL cells (ATCC) were maintained in 50% L-15 Leibovitz, 15% H-12 Ham and 35% DMEM supplemented with 10% FCS (Gibco, Paisley, Scotland, UK) and 50 ng ml-1 EGF (Sigma). Cells were cultured at 37°C (HepG2) or 28°C (ZFL) in 5% CO2. The transfection experiments were initiated by replacing the tissue culture medium with fresh phenol-free medium supplemented with charcoal stripped FCS and the cells were seeded on 24-well plates. Transfections were performed at 90–95% confluence using 1,5 μl Lipofectamine 2000 (Invitrogen, Carlsbad, CA, USA) and 0,6 μg DNA per well. […]
After 16 h the transfection medium was replaced with fresh phenol-free medium, supplemented with charcoal stripped FCS, containing different steroid hormones. The cells were exposed to the hormones for 40 h and luciferase levels were detected using the Dual Luciferase Assay kit (Promega) in a TD 20/20 Luminometer (Turner Designs, Sunnyvale, CA). […]

As for `C[C@]12CC(=O)[C@H]3[C@@H](CCC4=CC(=O)CC[C@@]43C)[C@@H]1CC[C@@H]2O` [KT, 11-ketotestosterone], at human AR, the “activation of human AR compared among androgens” value is recorded as “equally activated”. The “induction of luciferase activity” value was found to be 10 fold in the experiment with stickleback ARβ2 (HepG2 cells) and 12 fold in the experiment on stickleback ARβ2 (ZFL cells). Further, the “potency in activating the luciferase reporter gene relative to DHT” value with stickleback ARβ2 (HepG2 or ZFL cells, slp-ARU or slp-ARE reporter) is reported as 3 fold. Besides, in the experiment on stickleback ARβ2 (ZFL cells, 10^-8 M of each steroid), the “activation of stickleback AR compared with other androgens” value was “preferentially activated”. Besides, the “potency in spiggin induction relative to DHT” value in experiment [1] (1 μg implant dose) is on record as 23 times. Moreover, the “effectiveness at increasing kidney spiggin mRNA levels relative to T” value in experiment [1] (25 μg implant dose) was 50 times.

Source of the values: PMC1192819, “Molecular cloning and characterization of a nuclear androgen receptor activated by 11-ketotestosterone” (Reproductive biology and endocrinology : RB&E, 2005).
